Measured values published in ChEMBL document CHEMBL5728675, “5-alkyl pyrrolidine orexin receptor agonists” (2021).

biological target: T1, Orexin receptor type 2 (Homo sapiens, UniProt O43614); test: Receptor Activity Assay: In a typical experiment, the OX1 and OX2 receptor agonist activity is determined in accordance with the following general experimental method.
T1 sequence (O43614 whole entry): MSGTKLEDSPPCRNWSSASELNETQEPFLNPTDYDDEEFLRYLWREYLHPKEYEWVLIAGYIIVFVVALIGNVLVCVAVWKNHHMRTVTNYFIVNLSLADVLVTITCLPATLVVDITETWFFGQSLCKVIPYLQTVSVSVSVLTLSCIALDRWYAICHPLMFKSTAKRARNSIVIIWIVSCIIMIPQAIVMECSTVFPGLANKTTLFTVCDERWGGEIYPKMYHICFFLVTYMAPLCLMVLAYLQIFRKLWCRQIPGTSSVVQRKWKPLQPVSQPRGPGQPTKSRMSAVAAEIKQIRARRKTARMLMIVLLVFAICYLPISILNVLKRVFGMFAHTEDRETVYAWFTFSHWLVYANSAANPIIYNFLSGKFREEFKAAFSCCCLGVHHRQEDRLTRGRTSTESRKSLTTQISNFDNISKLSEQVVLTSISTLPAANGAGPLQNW

**Q.** How did the IC50 turn out when `CC(C)OC(=O)N1[C@H](C)C[C@H](NS(=O)(=O)N(C)C)[C@@H]1COC1CCN(c2ncc(F)cn2)CC1` was run?
**A.** Its IC50 is 1.15 nM.

**Q.** Which IC50 does the source give for `COC(=O)N1C(C2CC2)C[C@H](NS(C)(=O)=O)C1COC1CCC(c2ccccc2)CC1` (stereo partly specified) here?
**A.** The IC50 was 73.5 nM.

**Q.** For `CCc1ccccc1[C@H]1CC[C@H](OC[C@H]2[C@@H](NS(=O)(=O)N(C)C)C[C@@H](C)N2C(=O)OC)CC1`, which IC50 is on record?
**A.** Its IC50 is 111 nM.

**Q.** Which IC50 does the source give for `COC[C@@H]1C[C@H](NS(=O)(=O)N(C)C)[C@H](CO[C@H]2CC[C@@H](c3cccc(F)c3)CC2)N1C(=O)OC` here?
**A.** The IC50 was 0.7 nM.

**Q.** `COC(=O)N1[C@H](C)C[C@H](NS(=O)(=O)N(C)C)[C@@H]1CO[C@@H]1CC[C@H](c2ccccc2)CC1F` (stereo partly specified) was tested. Which IC50 did it give?
**A.** The IC50 was 10.8 nM.

**Q.** `COC(=O)N1[C@H](C)C[C@H](NS(=O)(=O)N(C)C)[C@@H]1CO[C@H]1CC[C@@H](c2cc(F)cc(F)c2)CC1` was tested. Which IC50 did it give?
**A.** The IC50 was 0.52 nM.

**Q.** For `COC(=O)N1[C@H](C)C[C@H](NS(C)(=O)=O)[C@@H]1CO[C@H]1CC[C@@H](c2cc(F)ccc2F)CC1`, which IC50 is on record?
**A.** Its IC50 is 1.67 nM.

**Q.** With `COC(=O)N1[C@H](C)C[C@H](NS(C)(=O)=O)[C@@H]1CO[C@H]1CC[C@@H](C(C)C)CC1` as the compound, how does the IC50 read?
**A.** The IC50 was 17.7 nM.

**Q.** With `CCc1ccccc1[C@H]1CC[C@@H](OC[C@H]2[C@@H](NS(=O)(=O)N(C)C)C[C@@H](C)N2C(=O)OC)CC1` as the compound, how does the IC50 read?
**A.** The IC50 was 2.2 nM.

**Q.** For `COCCS(=O)(=O)N[C@H]1C[C@@H](C)N(C(=O)OC)[C@H]1COC1CCC(c2cccc(F)c2)CC1` (stereo partly specified), which IC50 is on record?
**A.** Its IC50 is 4.6 nM.

**Q.** How did the IC50 turn out when `COC(=O)N1[C@H](C)C[C@H](NS(=O)(=O)N(C)CC#N)[C@@H]1CO[C@H]1CC[C@@H](c2cccc(F)c2)CC1` was run?
**A.** The IC50 was 0.6 nM.

**Q.** `COC(=O)N1[C@H](C)C[C@H](NS(=O)(=O)N(C)C)[C@@H]1CO[C@H]1CC[C@@H](c2ccccc2F)CC1` was tested. Which IC50 did it give?
**A.** Its IC50 is 0.92 nM.

**Q.** For `CC[C@@H]1C[C@H](NS(C)(=O)=O)[C@H](CO[C@H]2CC[C@@H](c3ccccc3)CC2)N1C(=O)OC`, which IC50 is on record?
**A.** The IC50 was 3 nM.

**Q.** How did the IC50 turn out when `COC(=O)N1[C@H](C)C[C@H](NS(C)(=O)=O)[C@@H]1CO[C@H]1CC[C@@H](c2ccccc2C(F)(F)F)CC1` was run?
**A.** Its IC50 is 6.82 nM.

**Q.** For `C[C@@H]1C[C@H](NS(=O)(=O)N(C)C)[C@H](CO[C@H]2CC[C@@H](c3cc(F)ccc3F)CC2)N1C(=O)OCC(F)F`, which IC50 is on record?
**A.** Its IC50 is 0.66 nM.

**Q.** For `COC(=O)N1[C@H](C)C[C@H](NS(=O)(=O)N(C)C)[C@@H]1CO[C@@H]1CC[C@H](c2cccc(F)c2)CC1F` (stereo partly specified), which IC50 is on record?
**A.** Its IC50 is 3.63 nM.

**Q.** `COC(=O)N1[C@H](C)C[C@H](NS(C)(=O)=O)[C@@H]1CO[C@H]1CC[C@@H](c2c(F)ccc(F)c2F)CC1` was tested. Which IC50 did it give?
**A.** Its IC50 is 1.07 nM.

**Q.** With `COC(=O)N1[C@H](C)C[C@H](NS(=O)(=O)CC(F)F)[C@@H]1CO[C@H]1CC[C@@H](c2cccc(F)c2)CC1` as the compound, how does the IC50 read?
**A.** The IC50 was 5.2 nM.

**Q.** How did the IC50 turn out when `COC(=O)N1[C@H](C)C[C@H](NS(=O)(=O)N(C)C)[C@@H]1CO[C@H]1CC[C@H](c2ccc(C#N)c(C)c2)CC1` was run?
**A.** Its IC50 is 12.5 nM.

**Q.** With `COC(=O)N1[C@H](C)C[C@H](NS(=O)(=O)N(C)C)[C@@H]1CO[C@H]1CC[C@@H](c2ccc(C#N)c(C)c2)CC1` as the compound, how does the IC50 read?
**A.** The IC50 was 1.1 nM.

**Q.** How did the IC50 turn out when `COC(=O)N1[C@H](C)C[C@H](NS(=O)(=O)N(C)C)[C@@H]1CO[C@H]1CC[C@@H](c2cc(F)ccc2F)CC1` was run?
**A.** The IC50 was 0.47 nM.

**Q.** `COC(=O)N1[C@H](C)C[C@H](NS(C)(=O)=O)[C@@H]1CO[C@H]1CC[C@@H](c2ccc(F)c(F)c2)CC1` was tested. Which IC50 did it give?
**A.** Its IC50 is 25.5 nM.

**Q.** For `COC(=O)N1[C@H](C)C[C@H](NS(=O)(=O)CF)[C@@H]1CO[C@H]1CC[C@@H](c2ccccc2)CC1`, which IC50 is on record?
**A.** The IC50 was 0.93 nM.

**Q.** With `COC(=O)N1[C@H](C)C[C@H](NS(=O)(=O)CF)[C@@H]1COC1CCC(c2cccc(F)c2)CC1` (stereo partly specified) as the compound, how does the IC50 read?
**A.** The IC50 was 1.4 nM.

**Q.** With `CC[C@H]1C[C@@H](NS(C)(=O)=O)[C@@H](CO[C@H]2CC[C@@H](c3ccccc3)CC2)N1C(=O)OC` as the compound, how does the IC50 read?
**A.** Its IC50 is 7330 nM.

**Q.** Which IC50 does the source give for `C=C[C@@H]1C[C@H](NS(C)(=O)=O)[C@H](CO[C@H]2CC[C@@H](c3ccccc3)CC2)N1C(=O)OC` (relative stereo) here?
**A.** Its IC50 is 9.4 nM.
